Results as given in ChEMBL document CHEMBL3351420, “Liver X receptor (LXR) partial agonists: biaryl pyrazoles and imidazoles displaying a preference for LXRβ” (Bioorg Med Chem Lett, 2015).
pEC50, pKi: −log10 of the molar value. Calls of active or inactive are those of the source. No cut-off for these calls is given here.

Tests used:
[1] = Plasma concentration in mouse at 30 mg/kg, po measured at 24 hrs post dose; format: ADME, organism-based; set-up: dose 30 mg/kg, route oral
[2] = target: Retinoic acid receptor RXR-alpha/oxysterols receptor LXR-alpha (Homo sapiens, UniProt Q13133); assay: Binding affinity to LXRalpha-RXRalpha heterodimer (unknown origin) expressed in insect cells by scintillation proximity assay
[3] = target: Retinoic acid receptor RXR-alpha/oxysterols receptor LXR-beta (Homo sapiens, UniProt P55055); assay: Binding affinity to LXRbeta-RXRalpha heterodimer (unknown origin) expressed in insect cells by scintillation proximity assay
Liver X receptor [4] = target: T1, Liver X receptor (Homo sapiens, UniProt Q13133+P55055); assay: Transactivation of LXR (unknown origin) expressed in human HeLa cells by ABCA1 LXREx3 reporter assay; format: cell-based
T1 sequence (Q13133 whole entry): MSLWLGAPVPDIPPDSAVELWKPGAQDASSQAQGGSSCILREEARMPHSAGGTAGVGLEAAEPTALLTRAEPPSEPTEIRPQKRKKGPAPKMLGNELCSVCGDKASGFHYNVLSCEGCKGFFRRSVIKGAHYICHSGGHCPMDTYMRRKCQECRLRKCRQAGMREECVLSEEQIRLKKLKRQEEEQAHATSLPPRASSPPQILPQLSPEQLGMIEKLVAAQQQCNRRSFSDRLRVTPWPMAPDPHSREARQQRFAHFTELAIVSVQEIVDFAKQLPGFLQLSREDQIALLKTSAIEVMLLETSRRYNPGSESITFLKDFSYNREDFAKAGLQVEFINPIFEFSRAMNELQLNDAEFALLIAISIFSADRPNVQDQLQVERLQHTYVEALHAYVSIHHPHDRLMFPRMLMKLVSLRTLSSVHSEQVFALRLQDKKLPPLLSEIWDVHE
T1 sequence (P55055 whole entry): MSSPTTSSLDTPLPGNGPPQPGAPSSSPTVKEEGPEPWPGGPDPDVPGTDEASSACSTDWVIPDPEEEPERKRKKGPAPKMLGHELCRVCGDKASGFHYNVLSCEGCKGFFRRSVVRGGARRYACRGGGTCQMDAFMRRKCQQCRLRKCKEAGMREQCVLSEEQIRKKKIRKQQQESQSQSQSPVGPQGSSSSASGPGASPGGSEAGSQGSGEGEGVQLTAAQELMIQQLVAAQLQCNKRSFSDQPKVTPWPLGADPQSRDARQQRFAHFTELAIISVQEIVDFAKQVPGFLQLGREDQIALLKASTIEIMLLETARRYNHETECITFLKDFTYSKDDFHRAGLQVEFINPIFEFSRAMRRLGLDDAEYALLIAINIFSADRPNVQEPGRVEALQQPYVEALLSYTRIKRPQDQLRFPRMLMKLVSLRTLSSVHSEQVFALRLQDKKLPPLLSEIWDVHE

[5] = Drug uptake in mouse liver at 30 mg/kg, po measured at 24 hrs post dose; format: ADME, organism-based; set-up: dose 30 mg/kg, route oral; conditions: read-out: Drug uptake
[6] = target: T2, Oxysterols receptor LXR-beta (Homo sapiens, UniProt P55055); assay: Transactivation of LXRbeta (unknown origin) expressed in CV1 cells by luciferase reporter gene assay; format: cell-based, CV-1
T2 sequence (P55055 whole entry): T1 sequence (P55055 whole entry)

[7] = target: T3, Oxysterols receptor LXR-alpha (Homo sapiens, UniProt Q13133); assay: Transactivation of LXRalpha (unknown origin) expressed in CV1 cells by luciferase reporter gene assay; format: cell-based, CV-1
T3 sequence (Q13133 whole entry): T1 sequence (Q13133 whole entry)

[8] = target: Liver X receptor (Homo sapiens) (UniProt Q13133+P55055); assay: Transactivation of LXR in human whole blood assessed as induction of ABCA1 after 4 hrs by SYBR-Green quantitative PCR analysis relative to 1-(2,4-difluorobenzyl)-2-oxo-6-(4-phenoxyphenyl)-4-(trifluoromethyl)-1,2-dihydropyridine-3-carbonitrile
[9] = Plasma concentration in mouse at 30 mg/kg, po measured at 4 hrs post dose; format: ADME, organism-based; set-up: dose 30 mg/kg, route oral
Liver X receptor [10] = target: T1, Liver X receptor; assay: Transactivation of LXR in human whole blood assessed as induction of ABCA1 after 4 hrs by SYBR-Green quantitative PCR analysis
Mus musculus [11] = assay: Elevation of hepatic triglyceride in C57BL/6 mouse at 30 mg/kg for 7 days measured 24 hrs post last dose relative to control; format: ADME, organism-based; set-up: dose 30 mg/kg; conditions: in vivo
Mus musculus [12] = assay: Induction of SREBP1c mRNA in C57BL/6 mouse liver at 30 mg/kg for 7 days measured 24 hrs post last dose relative to control; format: organism-based; set-up: dose 30 mg/kg; conditions: C57BL/6, 24 h, read-out: FC
Mus musculus [13] = assay: Induction of SREBP1c mRNA in C57BL/6 mouse liver at 10 mg/kg for 7 days measured 24 hrs post last dose relative to control; format: organism-based; set-up: dose 10 mg/kg; conditions: C57BL/6, 24 h, read-out: FC
Mus musculus [14] = assay: Induction of ABCA1 mRNA induction in C57BL/6 mouse blood cells at 3 to 30 mg/kg for 7 days measured 5 hrs post last dose relative to control; format: functional, organism-based
Mus musculus [15] = assay: Elevation of plasma triglyceride in C57BL/6 mouse at 30 mg/kg for 7 days measured 24 hrs post last dose relative to control; format: ADME, organism-based; set-up: dose 30 mg/kg; conditions: in vivo
[16] = Plasma concentration in C57BL/6 mouse at 30 mg/kg, po measured at 5 hrs post dose; format: ADME, organism-based; set-up: dose 30 mg/kg, route oral
[17] = Plasma concentration in C57BL/6 mouse at 3 mg/kg, po measured at 5 hrs post dose; format: ADME, organism-based; set-up: dose 3 mg/kg, route oral
Mus musculus [18] = assay: Induction of ABCG1 mRNA induction in C57BL/6 mouse blood cells at 3 to 30 mg/kg for 7 days measured 5 hrs post last dose relative to control; format: functional, organism-based
[19] = Plasma concentration in C57BL/6 mouse at 10 mg/kg, po measured at 5 hrs post dose; format: ADME, organism-based; set-up: dose 10 mg/kg, route oral
Mus musculus [20] = assay: Elevation of hepatic triglyceride in C57BL/6 mouse at 3 to 30 mg/kg for 7 days measured 24 hrs post last dose relative to control; format: ADME, organism-based; set-up: dose 3-30 mg/kg; conditions: in vivo
Mus musculus [21] = assay: Elevation of plasma triglyceride in C57BL/6 mouse at 3 to 10 mg/kg for 7 days measured 24 hrs post last dose relative to control; format: ADME, organism-based; set-up: dose 3-10 mg/kg; conditions: in vivo

Sequence of Retinoic acid receptor RXR-alpha/oxysterols receptor LXR-beta (P19793 whole entry, one chain of several): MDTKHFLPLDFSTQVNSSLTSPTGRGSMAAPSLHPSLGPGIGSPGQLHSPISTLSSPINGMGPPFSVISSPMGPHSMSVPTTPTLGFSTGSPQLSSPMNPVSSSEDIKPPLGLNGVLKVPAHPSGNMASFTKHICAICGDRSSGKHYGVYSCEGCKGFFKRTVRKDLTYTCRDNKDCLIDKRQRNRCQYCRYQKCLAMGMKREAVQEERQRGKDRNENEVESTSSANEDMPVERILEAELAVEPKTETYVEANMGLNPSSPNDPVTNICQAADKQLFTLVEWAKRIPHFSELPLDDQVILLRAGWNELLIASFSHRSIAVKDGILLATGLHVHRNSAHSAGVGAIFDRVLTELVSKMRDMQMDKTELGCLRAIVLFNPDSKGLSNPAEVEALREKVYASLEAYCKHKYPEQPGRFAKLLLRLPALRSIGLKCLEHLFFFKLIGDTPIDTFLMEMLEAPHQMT
Sequence of Retinoic acid receptor RXR-alpha/oxysterols receptor LXR-alpha (P19793 whole entry, one chain of several): as above

Row | Compound | concentration at 24 h [1] | pKi [2] | pKi [3] | EC50 (Liver X receptor [4]) | concentration at 24 h [5] | pEC50 [6] | pEC50 [7] | Efficacy [8] | concentration at 4 h [9] | pEC50 (Liver X receptor [10]) | further results
1 | CC(C)(O)c1cn(-c2ccc(-c3cccc(S(C)(=O)=O)c3)cc2)c(-c2ccccc2Cl)n1 | 2000 nM | 5.80 | 7.23 | 140 nM | 13200 nM | 6.22 | < 5.00 | 31% | 14000 nM | 5.08 | 
2 | CS(=O)(=O)c1cccc(-c2ccc(-c3cc(C(F)(F)F)nn3Cc3ccc(F)cc3F)s2)c1 |  | 7.70 | 8.15 |  |  | 7.85 | 7.74 |  |  |  | 
3 | CS(=O)(=O)c1cccc(-c2ccc(-c3cc(C(F)(F)F)nn3-c3ccccc3Cl)s2)c1 |  | 7.17 | 7.92 | 9 nM |  | 6.96 | 6.85 |  |  |  | 
4 | CC(C)(O)c1cn(-c2ccc(-c3cccc(S(C)(=O)=O)c3)cc2)c(-c2c(Cl)cccc2Cl)n1 | 600 nM | 5.60 | 7.27 | 140 nM | 4400 nM | 6.17 | < 5.00 | 38% | 18500 nM | 5.15 | 
5 | Cc1cc(CC(=O)O)ccc1-c1ccc(-c2cc(C(F)(F)F)c(C#N)c(=O)n2Cc2ccc(F)cc2F)s1 |  | 7.44 | 8.05 | 40 nM |  | 6.49 | 6.24 |  |  |  | fold change (FC) (Mus musculus [11]): 4.8; fold induction at 30 mg/kg (Mus musculus [12]): 7.7
6 | CS(=O)(=O)c1cccc(-c2ccc(-c3cc(C(F)(F)F)nn3-c3ccccc3Cl)cc2)c1 | 400 nM | 6.74 | 7.89 | 13 nM | 7800 nM | 7.31 | 6.66 | 49% | 600 nM | 6.32 | 
7 | CC(C)(O)c1cc(-c2ccc(-c3cccc(S(C)(=O)=O)c3)s2)n(-c2ccccc2Cl)n1 |  | 5.82 | 7.08 | 800 nM |  | 6.21 | 6.27 |  |  |  | 
8 | CS(=O)(=O)c1cccc(-c2cccc(-c3cc(C(F)(F)F)nn3-c3ccccc3Cl)c2)c1 | 300 nM | 6.52 | 7.51 | 38 nM | 1000 nM | 6.64 | 6.49 |  | 6600 nM |  | 
9 | CC(C)(O)c1cn(-c2ccc(-c3cccc(S(C)(=O)=O)c3)cc2)c(C(C)(C)c2ccccc2Cl)n1 [BMS-779788] | 40 nM | 7.17 | 7.85 | 33 nM | < 50 nM | 6.60 | 6.64 | 55% | 5400 nM | 5.92 | fold induction at 10 mg/kg (Mus musculus [13]): 2.7; Activity (Mus musculus [14]): Active; Activity (Mus musculus [15]): 74%; concentration at 5 h [16]: 2000 nM; concentration at 5 h [17]: 50 nM; Activity (Mus musculus [18]): Active; concentration at 5 h [19]: 200 nM; Activity (Mus musculus [20]): Non-toxic; Activity (Mus musculus [11]): Non-toxic; fold induction at 30 mg/kg (Mus musculus [12]): 3.5; Activity (Mus musculus [21]): Non-toxic
10 | COC(=O)c1cc(-c2ccc(-c3cccc(S(C)(=O)=O)c3)s2)n(-c2ccccc2Cl)n1 |  | 6.82 | 8.00 | 310 nM |  | 7.19 | 7.19 |  |  |  | 
11 | N#Cc1c(C(F)(F)F)cc(-c2ccc(Oc3ccccc3)cc2)n(Cc2ccc(F)cc2F)c1=O |  | 7.59 | 8.05 | 7 nM |  | 7.70 | 7.70 |  |  |  | 
12 | CS(=O)(=O)c1cccc(-c2ccc(-n3cc(C(F)(F)F)nc3-c3ccccc3Cl)cc2)c1 | 2300 nM | 7.21 | 7.96 | 5 nM | 32000 nM | 7.21 | 7.28 |  | 1200 nM |  | 
13 | CS(=O)(=O)c1cccc(-c2ccc(-c3cc(C(F)(F)F)nn3-c3ccccc3C(F)(F)F)s2)c1 | 4100 nM | 6.62 | 7.80 | 8 nM |  | 7.17 | 6.92 |  | 6900 nM |  | 
14 | CS(=O)(=O)c1cccc(-c2ccc(-c3cc(C(F)(F)F)c(C#N)c(=O)n3Cc3ccc(F)cc3F)s2)c1 |  | 7.96 | 7.96 |  |  | 8.70 | 8.40 |  |  |  | 
15 | CC(C)(O)c1cn(-c2ccc(-c3cccc(S(C)(=O)=O)c3)cc2)c(Cc2ccccc2Cl)n1 | 400 nM | 7.60 | 9.00 | 12 nM | 1500 nM | 7.18 | 7.07 | 62% | 1300 nM | 5.49 | 
16 | CC(C)(O)c1cn(-c2ccc(-c3cccc(S(C)(=O)=O)c3)cc2)c(Cc2ccccc2C(F)(F)F)n1 | 20 nM | 7.18 | 8.15 | 27 nM | 200 nM | 6.85 | 6.70 | 30% | 6000 nM | 5.51 | 
